Experimental data reported in patent publication US20060172987A1 (DSM IP Assets B.V., priority 2003, published 2006).

What was measured:
Type in all cases: physicochemical
[1] = Tapped density (USP 24, method II); details: for Tap. dens.: crystalline powder as obtained, trihydrate
Source text: In a preferred embodiment, the crystalline powder according to the invention has a tapped density higher than 0.6 g/ml, preferably higher than 0.7, more preferably higher than 0.8 g/ml. An increased tapped density improves the flow properties. Moreover, an increased tapped density is advantageous as more products may be fed into a certain volume, for instance a capsule. There is no specific upper limit for the tapped density. The tapped density may be less than 1.2 g/ml, for instance less than 1.1 g/ml, for instance less than 1.0 g/ml. The tapped density is preferably determined according to USP 24, method II, (page 1914).

[2] = Particle size distribution by laser diffraction (Malvern particle sizer 2600 C)
Source text: The d10 and d50 are known ways for indicating a particle size distribution, d50 referring to the value for the particle size such that 50 vol. % of the crystals has a particle size smaller than said value. The d50 is also referred to as average volume-based grain size. Likewise, d10 refers to the value for the particle size such that 10 vol. % of the crystals has a particle size smaller than said value. A preferred way for determining d10 and d50 is laser diffraction, preferably using Malvern equipment. A suitable apparatus for […] determining d10 and d50 is a Malvern particle sizer 2600 C obtainable from Malvern Instruments Ltd., Malvern UK, using an objective of f=300 mm and a beam length of is 14.30 mm. A polydisperse analysis model may advantageously be used.
The particle size distribution (including d10 and d50) was determined using a Malvern particle sizer 2600 C with objective f=300 mm, malvern sample measurement unit PS1 and a Malvern dry powder feeder PS 64. The beam length was 14.30 mm. A polydisperse analysis model was used.

[3] = Bulk density (USP 24, method I); details: for Bulk dens.: crystalline powder as obtained, trihydrate
Source text: The crystalline powder according according to this aspect of the invention has improved flow properties, without having to be subjected to processes such as granulation, compactation, agglomeration or aggregation, has good colour properties, good stability and a high dissolution rate. If it would still be desired to subject the crystalline powder to processes such as granulation, compactation, agglomeration or aggregation, and the like, applying these processes is facilitated due to the improved flow properties of the crystalline powder according to this aspect of the invention. Moreover, an increased quantity of crystalline powder can be fed into a capsule of a given size. The bulk density is preferably determined according to USP 24, method I, (page 1913). Preferably, of the crystalline powder has a bulk density higher than 0.46 g/ml, preferably higher than 0.5 g/ml, more preferably higher than 0.55 g/ml. This further improves the flow properties. Moreover, an increased bulk density is advantageous as crystalline powder may be fed into a certain volume, for instance a capsule. There is no specific upper limit for the bulk density. The bulk density may be less than 0.8 g/ml, for instance less than 0.7 g/ml.

[4] = Free water content by dynamic vapour sorption (adsorption isotherm, VTI-SGA 100); details: equilibrium relative humidity of 30%, 25° C.
Source text: The free water content of a sample can be determined by dynamic vapour sorption. The underlying principle is that the weight of the sample is monitored while it is contacted with air having a preconditioned relative humidity. As a result of water take-up or water release the sample weight will change until the equilibrium situation has been established. The sample weight in this equilibrium situation is the sample weight corresponding to the equilibrium relative humidity, the latter being the relative humidity of the preconditioned air with which the sample is contacted. By repeating this procedure for different values of the equilibrium relative humidity, the sample weight can be determined as a function of the equilibrium relative humidity. […]
As used herein, the free water content measured at an equilibrium relative humidity of 30% and at a temperature of 25° C. is in particular defined as ((w30-w10)/w10)*100%, wherein […]
The free water content, including the values for w30 and w10 are preferably determined using dynamic vapour sorption, for instance using a VTI-SGA 100 vapour sorption analyser. […]
Adsorption isotherms were determined using dynamic vapour sorption, using a VTI-SGA 100 vapour sorption analyser. […]

[5] = overheads fraction after air jet sieving, 75 μm screen, 10 minutes
[6] = crystalline powder as obtained, trihydrate

Structure (SMILES) | Tap. dens. [1] [g/mL] | tapped density [1, 5] [g/mL] | d10 [2, 6] [μm] | d50 [2, 6] [μm] | d10 [2, 5] [μm] | d50 [2, 5] [μm] | Bulk dens. [3] [g/mL] | bulk density [3, 5] [g/mL] | d10 ([2]; crystalline powder as obtained) [μm] | d50 ([2]; crystalline powder as obtained) [μm] | Free water content at ERH = 30% [4] [wt. %]
CC1(C)S[C@@H]2[C@H](NC(=O)[C@H](N)c3ccc(O)cc3)C(=O)N2[C@H]1C(=O)O.O.O.O [Example VI, amoxicillin trihydrate] | 0.79 | 0.74 | 19 | 61 | 36 | 86 | 0.58 | 0.59 |  |  | 
CC1(C)S[C@@H]2[C@H](NC(=O)[C@H](N)c3ccc(O)cc3)C(=O)N2[C@H]1C(=O)O [Comp. A, amoxicillin, reference compound] |  |  |  |  |  |  |  |  | 2.7 | 8.3 | 0.11
CC1(C)S[C@@H]2[C@H](NC(=O)[C@H](N)c3ccc(O)cc3)C(=O)N2[C@H]1C(=O)O.O.O.O [Ex. I, amoxicillin trihydrate] | 0.73 |  | 11.4 | 43.1 |  |  | 0.51 |  |  |  | 0.05
CC1(C)S[C@@H]2[C@H](NC(=O)[C@H](N)c3ccc(O)cc3)C(=O)N2[C@H]1C(=O)O.O.O.O [Example V, amoxicillin trihydrate] | 0.47 |  | 17.4 | 66.3 |  |  | 0.25 |  |  |  | 
